Among the test systems are SR; OVCAR-8; NCI-H226; UACC-62; OVCAR-5; SF-539; HCC 2998; NCI/ADR-RES; NCI-H23; HCT-15; Malme-3M; SNB-75; NCI-H460; SK-MEL-2; HOP-92; EKVX; MDA-MB-231; T47D; RPMI-8226.
Assay in all cases: NCI tumour cell line growth inhibition, 48 h

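Test compounds were applied to cells in 96-well plates for 48 hours at 5 doses. GI50: concentration for 50% inhibition of growth.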 Active and inactive are the calls of the source. No stated cut-off is given here; in the data, active = GI50 up to about 1.1 µM and inactive = higher.

As to `CCC/N=C/c1cc(Cc2ccc(O)c(/C=N/CCC)c2)ccc1O`, the GI50 in the assay with SR was 1.95 µM (inactive); in the assay with OVCAR-8 it was 3.1 µM (inactive); in the assay on NCI-H226, 8.43 µM (inactive); in the assay on UACC-62, 5.53 µM (inactive); in the assay on OVCAR-5 it was 18.4 µM (inactive); in the assay with SF-539 it was 2.77 µM (inactive). Besides, the GI50 in the assay with HCC 2998 was 14.1 µM (inactive); with NCI/ADR-RES, 17.2 µM (inactive); in the assay on NCI-H23, 6.46 µM (inactive); with HCT-15 it was 3.33 µM; in the assay on Malme-3M it was 19.5 µM (inactive); in the assay with SNB-75, 2.86 µM (inactive). The GI50 with NCI-H460 is 18.4 µM (inactive); in the assay with SK-MEL-2, 3 µM (inactive); with HOP-92, 1.85 µM (inactive); in the assay with EKVX, 8.87 µM (inactive); in the assay on MDA-MB-231, 9.89 µM (inactive); with T47D it was 1.45 µM (inactive).
As to `C[n+]1c(-c2ccc(/C=N\N3CCN(/N=C/c4ccc(-c5cn6ccsc6[n+]5C)cc4)CC3)cc2)cn2ccsc21`, the GI50 with SR is 41.4 µM (inactive); in the assay with OVCAR-8 it was 41.7 µM (inactive); with NCI-H226 it was 45.8 µM (inactive); in the assay on UACC-62, 22.1 µM (inactive); in the assay with OVCAR-5 it was > 100 µM (inactive); with SF-539, 30.3 µM (inactive). Also, the GI50 with NCI/ADR-RES is > 100 µM (inactive); in the assay on NCI-H23, 30.1 µM (inactive); in the assay on HCT-15 it was 34.5 µM; in the assay with SNB-75, 26.9 µM (inactive); in the assay with NCI-H460 it was 26.7 µM (inactive); in the assay with SK-MEL-2, 31.8 µM (inactive). In addition, the GI50 in the assay with HOP-92 was 42.3 µM (inactive); with EKVX, 43.5 µM (inactive); with MDA-MB-231 it was 20.7 µM (inactive); in the assay with RPMI-8226, 22.7 µM (inactive); with T47D it was 12.7 µM (inactive).
In the case of `CS(=O)(=O)N(CC(=O)O)Cc1ccccc1`, the GI50 in the assay on SR, in the assay with OVCAR-8, in the assay on NCI-H226, with UACC-62, in the assay with OVCAR-5 and with SF-539 was > 100 µM (inactive) in each case. The GI50 in the assay with NCI/ADR-RES is > 100 µM (inactive); with NCI-H23, > 100 µM (inactive); in the assay with HCT-15, more than 100 µM; in the assay with Malme-3M, > 100 µM (inactive); in the assay on SNB-75, > 100 µM (inactive); in the assay with NCI-H460, > 100 µM (inactive). Further, the GI50 with SK-MEL-2, in the assay with HOP-92, in the assay on EKVX, in the assay with MDA-MB-231, with RPMI-8226 and with T47D was > 100 µM (inactive) each time.
In the case of `O=CC12c3ccccc3C(c3ccccc31)C1C(=O)NC(=O)C12` (centres undefined), the GI50 with SR, with OVCAR-8, in the assay on NCI-H226, in the assay with UACC-62, in the assay on OVCAR-5 and in the assay on SF-539 was > 100 µM (inactive) in each case. Besides, the GI50 in the assay with HCC 2998 was > 100 µM (inactive); in the assay on NCI/ADR-RES it was > 100 µM (inactive); with NCI-H23, > 100 µM (inactive); in the assay with HCT-15, more than 100 µM; with Malme-3M, 90.2 µM (inactive); in the assay on SNB-75, 39 µM (inactive). Also, the GI50 with NCI-H460 is > 100 µM (inactive); with SK-MEL-2, > 100 µM (inactive); with HOP-92, > 100 µM (inactive); with EKVX, > 100 µM (inactive); in the assay on MDA-MB-231, > 100 µM (inactive); in the assay on T47D it was 75.3 µM (inactive).
As to `OCCCCCCCCCCCOc1ccc(C2OCC3(CO2)COC(c2ccc(OCCCCCCCCCCCO)cc2)OC3)cc1` (centres undefined), the GI50 is > 50 µM (inactive) in the assay on SR; > 50 µM (inactive) in the assay on OVCAR-8; 29.6 µM (inactive) in the assay with NCI-H226; > 50 µM (inactive) in the assay on UACC-62; > 50 µM (inactive) in the assay with OVCAR-5; > 50 µM (inactive) in the assay with SF-539. The GI50 in the assay on HCC 2998 was > 50 µM (inactive); in the assay on NCI/ADR-RES, > 50 µM (inactive); in the assay with NCI-H23, > 50 µM (inactive); in the assay on HCT-15, more than 50 µM; in the assay on Malme-3M it was > 50 µM (inactive); in the assay on SNB-75, > 50 µM (inactive). In addition, the GI50 in the assay with NCI-H460, with SK-MEL-2, in the assay with EKVX, with MDA-MB-231, in the assay on RPMI-8226 and with T47D was > 50 µM (inactive) in each case.
Consider `C=C1[C@H](OC(C)=O)[C@H]2[C@@H](OC(C)=O)[C@@H](C)C[C@]2(C)C(=O)[C@H](C)/C=C/C(C)(C)C(=O)[C@H](OCC(C)C)[C@H]1OC(C)=O`, for which the GI50 with SR was > 25 µM (inactive); in the assay on OVCAR-8 it was > 25 µM (inactive); with NCI-H226 it was > 25 µM (inactive); with UACC-62 it was > 25 µM (inactive); with OVCAR-5, > 25 µM (inactive); in the assay on SF-539, 19.6 µM (inactive). For the same compound, the GI50 is > 25 µM (inactive) with HCC 2998; > 25 µM (inactive) in the assay with NCI/ADR-RES; > 25 µM (inactive) in the assay on NCI-H23; more than 25 µM with HCT-15; > 25 µM (inactive) with SNB-75; 12.6 µM (inactive) in the assay with NCI-H460. Also, the GI50 in the assay on SK-MEL-2, with HOP-92, in the assay on EKVX, with MDA-MB-231 and with T47D was > 25 µM (inactive) each time.
As to `COC(=O)c1ccccc1Nc1nc(-c2cccs2)nc2cc(OC)c(OC)cc12`, the GI50 in the assay on SR is 18 µM (inactive); in the assay with OVCAR-8, 15.2 µM (inactive); in the assay on NCI-H226 it was 23.4 µM (inactive); with UACC-62 it was 52.6 µM (inactive); with OVCAR-5, 36.2 µM (inactive); with SF-539, 27.4 µM (inactive). In addition, the GI50 is 57 µM (inactive) in the assay on NCI/ADR-RES; 17.4 µM (inactive) in the assay on NCI-H23; 90.2 µM in the assay with HCT-15; 61 µM (inactive) in the assay on Malme-3M; 75.3 µM (inactive) with SNB-75; 58.6 µM (inactive) with NCI-H460. Further, the GI50 with SK-MEL-2 was 64.7 µM (inactive); in the assay with HOP-92 it was 44.5 µM (inactive); with EKVX it was 37.9 µM (inactive); in the assay with MDA-MB-231 it was 28.9 µM (inactive); in the assay with RPMI-8226 it was 49.8 µM (inactive); with T47D, 37 µM (inactive).
On to `O=C(OC[C@H]1C[C@H]2C(=O)CCC[C@H]2O1)c1ccccc1`, for which the GI50 in the assay on SR, in the assay with OVCAR-8, with NCI-H226, with UACC-62, with OVCAR-5 and with SF-539 was > 100 µM (inactive) each time. For the same compound, the GI50 was > 100 µM (inactive) with NCI/ADR-RES; > 100 µM (inactive) in the assay on NCI-H23; more than 100 µM in the assay with HCT-15; > 100 µM (inactive) in the assay with SNB-75; > 100 µM (inactive) in the assay with NCI-H460; > 100 µM (inactive) in the assay with SK-MEL-2. The GI50 in the assay on HOP-92, in the assay on EKVX, in the assay on MDA-MB-231, in the assay with RPMI-8226 and in the assay on T47D was > 100 µM (inactive) each time.
With `CC(=O)Nc1ccc(-c2cc(C(=O)O)c3cc4ccccc4cc3n2)cc1`, the GI50 in the assay on SR, in the assay on OVCAR-8, in the assay with NCI-H226, with UACC-62, with OVCAR-5 and in the assay with SF-539 was > 100 µM (inactive) throughout. The GI50 in the assay on NCI/ADR-RES was > 100 µM (inactive); in the assay with NCI-H23 it was > 100 µM (inactive); with HCT-15, more than 100 µM; in the assay on Malme-3M, > 100 µM (inactive); in the assay on SNB-75, > 100 µM (inactive); with NCI-H460, > 100 µM (inactive). Besides, the GI50 in the assay with SK-MEL-2, in the assay with HOP-92, with EKVX, in the assay on MDA-MB-231, in the assay on RPMI-8226 and in the assay with T47D was > 100 µM (inactive) in each case.
Consider `O=CC(O)C(O)C(O)C(O)C(=O)NCCCCCCCCCCCCNC(=O)C(O)C(O)C(O)C(O)C=O` (centres undefined), for which the GI50 with SR, in the assay with OVCAR-8, in the assay with NCI-H226, with UACC-62, with OVCAR-5 and in the assay on SF-539 was > 100 µM (inactive) throughout. The GI50 in the assay on HCC 2998 was > 100 µM (inactive); in the assay with NCI/ADR-RES it was > 100 µM (inactive); with NCI-H23, > 100 µM (inactive); in the assay with HCT-15, more than 100 µM; in the assay on Malme-3M, > 100 µM (inactive); in the assay on NCI-H460, > 100 µM (inactive). The GI50 in the assay on SK-MEL-2, in the assay with HOP-92, in the assay on EKVX, with MDA-MB-231 and in the assay on T47D was > 100 µM (inactive) in each case.
For `COc1cccc(Nc2nc(C)c([N+](=O)[O-])c(Nc3cccc(OC)c3)n2)c1`, the GI50 in the assay on SR was 7.76 µM (inactive); in the assay with OVCAR-8, 5.74 µM (inactive); in the assay on NCI-H226, 40.8 µM (inactive); in the assay on UACC-62, 5.75 µM (inactive); with OVCAR-5, > 100 µM (inactive); in the assay on SF-539 it was 29 µM (inactive). For the same compound, the GI50 is 2.92 µM (inactive) in the assay on NCI/ADR-RES; 16.2 µM (inactive) in the assay on NCI-H23; 18.4 µM in the assay on HCT-15; 53.1 µM (inactive) in the assay on Malme-3M; 0.313 µM (active) in the assay with SNB-75; 3.95 µM (inactive) in the assay with NCI-H460. The GI50 is 15.9 µM (inactive) with SK-MEL-2; 6.08 µM (inactive) in the assay on HOP-92; 6.35 µM (inactive) in the assay with EKVX; 49.7 µM (inactive) in the assay with MDA-MB-231; 5.06 µM (inactive) with RPMI-8226; 2.05 µM (inactive) in the assay on T47D.

(Values after ChEMBL document CHEMBL1201862, “PubChem BioAssay data set” (2004).)
